Active and inactive are the calls of the source. The rule behind the calls is not given here.
Assays:
[1] = Cytotoxicity against HEK293T cells cotransfected with pCMV-Script-hFXR/pGL4.11-hSHP-Luciferase incubated for 24 hrs in presence of GW4064 by celltiter-blue cell viability assay; type: toxicity, cell-based, HEK-293T; conditions: human
Bile acid receptor = target: T1, Bile acid receptor (Homo sapiens, UniProt Q96RI1); test: Antagonist activity at FXR (unknown origin) expressed in HEK293T cells cotransfected with pCMV-Script-hFXR/pGL4.11-hSHP-Luciferase incubated for 24 hrs in presence of GW4064 by Steady-glo luciferase assay; type: cell-based
T1 sequence (Q96RI1 whole entry): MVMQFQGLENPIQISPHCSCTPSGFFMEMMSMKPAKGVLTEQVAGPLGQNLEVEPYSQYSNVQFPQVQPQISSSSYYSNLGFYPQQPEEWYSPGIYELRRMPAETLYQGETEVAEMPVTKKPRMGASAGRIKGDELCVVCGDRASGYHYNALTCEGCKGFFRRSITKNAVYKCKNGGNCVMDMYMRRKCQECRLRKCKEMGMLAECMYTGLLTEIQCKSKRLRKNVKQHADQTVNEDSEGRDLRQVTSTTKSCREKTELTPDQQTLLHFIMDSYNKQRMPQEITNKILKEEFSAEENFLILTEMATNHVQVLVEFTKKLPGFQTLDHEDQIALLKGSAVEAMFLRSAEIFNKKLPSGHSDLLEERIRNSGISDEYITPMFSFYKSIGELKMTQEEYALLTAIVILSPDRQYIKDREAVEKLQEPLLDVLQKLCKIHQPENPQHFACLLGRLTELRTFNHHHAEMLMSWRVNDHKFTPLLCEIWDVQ

[2] = target: T2, Bile acid receptor (Mus musculus) (UniProt Q60641); test: In vivo antagonist activity against FXR in microbeta depleted mouse assessed as reduction in taurocholic acid induced Shp mRNA expression in ileum at 10 mg/kg, po incubated for 2 to 48 hrs; type: functional, organism-based; conditions: time 2-48 hrs
T2 sequence (whole entry): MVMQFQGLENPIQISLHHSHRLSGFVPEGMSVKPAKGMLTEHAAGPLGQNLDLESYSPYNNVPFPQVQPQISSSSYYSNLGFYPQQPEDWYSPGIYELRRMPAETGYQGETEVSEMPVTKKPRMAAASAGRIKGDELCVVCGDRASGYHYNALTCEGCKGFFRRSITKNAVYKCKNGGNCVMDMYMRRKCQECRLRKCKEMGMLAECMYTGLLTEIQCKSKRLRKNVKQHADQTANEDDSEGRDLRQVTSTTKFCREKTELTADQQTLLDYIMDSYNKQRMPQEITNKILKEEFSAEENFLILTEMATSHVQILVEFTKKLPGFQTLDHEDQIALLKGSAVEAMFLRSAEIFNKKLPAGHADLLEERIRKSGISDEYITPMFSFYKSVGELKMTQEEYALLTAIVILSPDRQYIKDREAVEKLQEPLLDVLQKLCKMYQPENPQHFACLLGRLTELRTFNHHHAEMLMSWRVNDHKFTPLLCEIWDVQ

[3] = target: T2, Bile acid receptor (Mus musculus); test: In vivo antagonist activity against FXR in microbeta depleted mouse assessed as reduction in taurocholic acid induced Fgf15 mRNA expression in ileum at 10 mg/kg, po incubated for 2 to 48 hrs; type: functional, organism-based; conditions: time 2-48 hrs
[4] = target: T2, Bile acid receptor (Mus musculus); test: In vivo antagonist activity against FXR in microbeta depleted mouse assessed as reduction in taurocholic acid induced FXR mRNA expression in hepatic signaling at 10 mg/kg, po incubated for 2 to 48 hrs; type: functional, organism-based; conditions: time 2-48 hrs
Mus musculus [5] = test: Anti-NASH activity in GAN diet-induced […] mouse assessed as reduction of dihydroceramide level in serum administered orally for 12 weeks; type: functional, organism-based; conditions: route po
Mus musculus [6] = test: Anti-NASH activity in GAN diet-induced […] mouse assessed as reduction of glycosyl-ceramide level in serum administered orally for 12 weeks; type: functional, organism-based; conditions: route po
Mus musculus [7] = test: Anti-NASH activity in GAN diet-induced […] mouse assessed as reduction of sphinogo-myelin level in serum administered orally for 12 weeks; type: functional, organism-based; conditions: route po
Mus musculus [8] = test: Anti-NASH activity in GAN diet-induced […] mouse assessed as reduction of ceramide level in serum administered orally for 12 weeks; type: functional, organism-based; conditions: route po
Mus musculus [9] = species on record: Mus musculus; test: Anti-NASH activity in GAN diet-induced […] mouse assessed as increase in hepatic bile acid synthesis; type: functional, organism-based
Mus musculus [10] = species on record: Mus musculus; test: Anti-NASH activity in GAN diet-induced […] mouse assessed as reduction of bile acid pool size in ileum; type: functional, organism-based
Mus musculus [11] = species on record: Mus musculus; test: Anti-NASH activity in GAN diet-induced […] mouse assessed as reduction in bile acid loss in cecum content; type: functional, organism-based
Mus musculus [12] = species on record: Mus musculus; test: Anti-NASH activity in GAN diet-induced […] mouse assessed as bile acid level in serum; type: functional, organism-based
Mus musculus [13] = species on record: Mus musculus; test: Anti-NASH activity in GAN diet-induced […] mouse assessed as bile acid level in gall bladder; type: functional, organism-based

Row | SMILES | IC50 at 24 h [1] [µM] | IC50 (Bile acid receptor) [µM] | also measured
1 | CCCC(=O)O[C@@H]1CC[C@]2(C)[C@H]3CC[C@@H]4[C@H]5[C@H](C(C)C)CC[C@]5(C(=O)N[C@@H](C)C(=O)O)CC[C@@]4(C)[C@]3(C)CC[C@H]2C1(C)C | 37.7 |  | 
2 | CC(C)[C@@H]1CC[C@]2(C(=O)NCC(=O)O)CC[C@]3(C)[C@H](CC[C@@H]4[C@@]5(C)CC[C@@H](OC(=O)c6ccc(F)cc6)C(C)(C)[C@@H]5CC[C@]43C)[C@@H]12 | 55.7 |  | 
3 | CC(C)C(=O)O[C@@H]1CC[C@]2(C)[C@H]3CC[C@@H]4[C@H]5[C@H](C(C)C)CC[C@]5(C(=O)NCC(=O)O)CC[C@@]4(C)[C@]3(C)CC[C@H]2C1(C)C | > 100 | 4.6 | 
4 | CCCC(=O)O[C@@H]1CC[C@]2(C)[C@H]3CC[C@@H]4[C@H]5[C@H](C(C)C)CC[C@]5(C(=O)NCCS(=O)(=O)O)CC[C@@]4(C)[C@]3(C)CC[C@H]2C1(C)C | > 100 | > 100 | 
5 | CC(C)[C@@H]1CC[C@]2(C(=O)NCC(=O)O)CC[C@]3(C)[C@H](CC[C@@H]4[C@@]5(C)CC[C@@H](OC(=O)c6ccco6)C(C)(C)[C@@H]5CC[C@]43C)[C@@H]12 | > 100 | > 100 | 
6 | C[C@H](CCC(=O)NCC(=O)O)[C@H]1CC[C@H]2[C@@H]3[C@@H](O)C[C@@H]4C[C@H](O)CC[C@]4(C)[C@H]3CC[C@]12C [GLYCOURSODEOXYCHOLIC ACID] | > 100 |  | Activity [2]: Active; Activity [3]: Active; Activity [4]: Active; Activity (Mus musculus [5]): Active; Activity (Mus musculus [6]): Active; Activity (Mus musculus [7]): Active; Activity (Mus musculus [8]): Active; Activity (Mus musculus [9]): Active; Activity (Mus musculus [10]): Active; Activity (Mus musculus [11]): Active; Activity (Mus musculus [12]): Active; Activity (Mus musculus [13]): Active
7 | COc1ccc(C(=O)O[C@@H]2CC[C@]3(C)[C@H]4CC[C@@H]5[C@H]6[C@H](C(C)C)CC[C@]6(C(=O)NCC(=O)O)CC[C@@]5(C)[C@]4(C)CC[C@H]3C2(C)C)cc1 | > 100 | 4.1 | 
8 | CCCC(=O)O[C@@H]1CC[C@]2(C)[C@H]3CC[C@@H]4[C@H]5[C@H]([C@@H](C)CO)CC[C@]5(C(=O)NCC(=O)O)CC[C@@]4(C)[C@]3(C)CC[C@H]2C1(C)C | > 100 | 14.1 | 
9 | CCCC(=O)O[C@@H]1CC[C@]2(C)[C@H]3CC[C@@H]4[C@H]5[C@H]([C@@H](C)C(=O)O)CC[C@]5(C(=O)NCC(=O)O)CC[C@@]4(C)[C@]3(C)CC[C@H]2C1(C)C | 97.2 | 25.7 | 
10 | CC(C)[C@@H]1CC[C@]2(C(=O)NCC(=O)O)CC[C@]3(C)[C@H](CC[C@@H]4[C@@]5(C)CC[C@@H](OC(=O)c6ccccc6)C(C)(C)[C@@H]5CC[C@]43C)[C@@H]12 | 35 | 1.1 | 
11 | CCCC(=O)O[C@@H]1CC[C@]2(C)[C@H]3CC[C@@H]4[C@H]5[C@H](C(C)C)CC[C@]5(C(=O)NCC(=O)NS(C)(=O)=O)CC[C@@]4(C)[C@]3(C)CC[C@H]2C1(C)C | > 100 | 12.1 | 
12 | CCCC(=O)O[C@@H]1CC[C@]2(C)[C@H]3CC[C@@H]4[C@H]5[C@H](C(C)C)CC[C@]5(C(=O)OCC(=O)O)CC[C@@]4(C)[C@]3(C)CC[C@H]2C1(C)C | 29.2 | 1.9 | 
13 | CCCS(=O)(=O)O[C@@H]1CC[C@]2(C)[C@H]3CC[C@@H]4[C@H]5[C@H](C(C)C)CC[C@]5(C(=O)NCC(=O)O)CC[C@@]4(C)[C@]3(C)CC[C@H]2C1(C)C | > 100 | 14 | 
14 | CCNC(=O)O[C@@H]1CC[C@]2(C)[C@H]3CC[C@@H]4[C@H]5[C@H](C(C)C)CC[C@]5(C(=O)NCC(=O)O)CC[C@@]4(C)[C@]3(C)CC[C@H]2C1(C)C | 56 | 3.4 | 
15 | CCCC(=O)O[C@@H]1CC[C@]2(C)[C@H]3CC[C@@H]4[C@H]5[C@H](C(C)C)CC[C@]5(NC(=O)NCC(=O)O)CC[C@@]4(C)[C@]3(C)CC[C@H]2C1(C)C | 1.3 | 1.1 | 
16 | CCOC(=O)O[C@@H]1CC[C@]2(C)[C@H]3CC[C@@H]4[C@H]5[C@H](C(C)C)CC[C@]5(C(=O)NCC(=O)O)CC[C@@]4(C)[C@]3(C)CC[C@H]2C1(C)C | > 100 | 7.3 | 
17 | CCCC(=O)O[C@@H]1CC[C@]2(C)[C@H]3CC[C@@H]4[C@H]5[C@H](C(C)=O)CC[C@]5(C(=O)NCC(=O)O)CC[C@@]4(C)[C@]3(C)CC[C@H]2C1(C)C | 44.3 | 10 | 
18 | CCCC(=O)O[C@@H]1CC[C@]2(C)[C@H]3CC[C@@H]4[C@H]5[C@H](C(=O)CO)CC[C@]5(C(=O)NCC(=O)O)CC[C@@]4(C)[C@]3(C)CC[C@H]2C1(C)C | 25.3 |  | 
19 | CCCC(=O)O[C@H]1CC[C@]2(C)[C@H]3CC[C@@H]4[C@H]5[C@H](C(C)C)CC[C@]5(C(=O)NCC(=O)O)CC[C@@]4(C)[C@]3(C)CC[C@H]2C1(C)C | > 100 | 13 | 
20 | CC(C)[C@@H]1CC[C@]2(C(=O)NCC(=O)O)CC[C@]3(C)[C@H](CC[C@@H]4[C@@]5(C)CC[C@@H](OC(=O)C6CCCC6)C(C)(C)[C@@H]5CC[C@]43C)[C@@H]12 | 2 | 1.6 | 
21 | CCNS(=O)(=O)O[C@@H]1CC[C@]2(C)[C@H]3CC[C@@H]4[C@H]5[C@H](C(C)C)CC[C@]5(C(=O)NCC(=O)O)CC[C@@]4(C)[C@]3(C)CC[C@H]2C1(C)C | > 100 |  | 
22 | CCCC(=O)O[C@@H]1CC[C@]2(C)[C@H]3CC[C@@H]4[C@H]5[C@H](C(C)C)CC[C@]5(C(=O)NCCC(=O)O)CC[C@@]4(C)[C@]3(C)CC[C@H]2C1(C)C | > 100 | 9.9 | 
23 | CCCC(=O)O[C@@H]1CC[C@]2(C)[C@H]3CC[C@@H]4[C@H]5[C@H](C(C)C)CC[C@]5(NC(=O)OCC(=O)O)CC[C@@]4(C)[C@]3(C)CC[C@H]2C1(C)C | 1 | 0.9 | 
24 | CC(C)[C@@H]1CC[C@]2(C(=O)O)CC[C@@H]3[C@H](CC[C@H]4[C@@]3(C)CC[C@H]3C(C)(C)[C@H](O)CC[C@]43C)[C@@H]12 | 61.7 | 7.9 | 
25 | CC(C)[C@@H]1CC[C@]2(C(=O)NCC(=O)O)CC[C@]3(C)[C@H](CC[C@@H]4[C@@]5(C)CC[C@@H](OC(=O)C6CCC6)C(C)(C)[C@@H]5CC[C@]43C)[C@@H]12 | > 100 | 4.1 | 
26 | CCCCC(=O)O[C@@H]1CC[C@]2(C)[C@H]3CC[C@@H]4[C@H]5[C@H](C(C)C)CC[C@]5(C(=O)NCC(=O)O)CC[C@@]4(C)[C@]3(C)CC[C@H]2C1(C)C | > 100 | 3 | 
27 | CCC(=O)O[C@@H]1CC[C@]2(C)[C@H]3CC[C@@H]4[C@H]5[C@H](C(C)C)CC[C@]5(C(=O)NCC(=O)O)CC[C@@]4(C)[C@]3(C)CC[C@H]2C1(C)C | > 100 | 9.1 | 
28 | CC(C)[C@@H]1CC[C@]2(C(=O)NCC(=O)O)CC[C@]3(C)[C@H](CC[C@@H]4[C@@]5(C)CC[C@@H](OC(=O)C6CC6)C(C)(C)[C@@H]5CC[C@]43C)[C@@H]12 | > 100 | 10 | 

Source: ChEMBL document CHEMBL5096210, “Discovery of Betulinic Acid Derivatives as Potent Intestinal Farnesoid X Receptor Antagonists to Ameliorate Nonalcoholic Steatohepatitis” (J Med Chem, 2022)
